Source: patent US12496281B2, “Compounds for prevention and treatment of hemorrhage and vasculature instability” (Abrexa Pharmaceuticals, Inc., priority 2020, dated 2025)

How the values were obtained:
[1] = system: suture-type transient middle cerebral artery occlusion (MCAO) model; experiment: Suture transient MCAO model, 2 h ischemia, reperfusion 24 h (Example 1); type: in vivo, Sprague Dawley rats; settings: for infarct volume (TTC staining) relative to placebo: 24 h after reperfusion
Protocol: In this model, J147 was administered i.v. at doses of 1 mg/kg, 10 mg/kg and 30 mg/kg of total body weight immediately after reperfusion (i.e., about 2 hours after ischemia onset). […] Maximum volume (iv., bolus)=5 ml/kg. (ip., bolus)=10 ml/kg. […] The Bederson scale is a global neurological assessment that was developed to measure neurological impairments following stroke. Tests include forelimb flexion, resistance to lateral push and circling behavior. In this case, a Bederson grading scale of 0-5 was used to assess behavioral deficits after reperfusion. This scoring scale is a simple way to reveal basic neurological deficits.

[2] = system: suture MCAO-induced ischemia followed by reperfusion; experiment: J147 dose-response, 2-hour suture MCAO followed by reperfusion, 72 h (Example 3); type: in vivo, SD rats
Protocol: Objective: […] Methods: […] J147 compound (1.0, 10, 30 mg/kg) and vehicle were administered at 2 hours after onset of ischemia (FIG. 5). Bederson score was examined prior to the sacrifice at 72 h after stroke. Infarct volumes in TTC-stained brain coronal sections were measured.

[3] = system: eMCAO, 4 μm blood clot; experiment: J147 alone in embolic MCAO (eMCAO) model without tPA or reperfusion (Example 5); type: in vivo, SD rats; settings: J147 alone 1 mg/ml or 10 mg/ml i.v., or 30 mg/ml i.p. two hours after stroke onset; no tPA, no reperfusion; 24 hours after stroke
Protocol: In this example, an eMCAO experiment was performed to determine if J147 alone (i.e., without administration of TPA or other thrombolytic intervention) provided any therapeutic benefit for stroke in the absence of reperfusion caused by TPA.

[4] = system: thromboembolic middle cerebral artery occlusion (MCAO); experiment: J147+tPA expanded study: infarct volume, intracerebral hemorrhage, mortality (Example 4A); type: in vivo, SD rats
Protocol: Objective: To determine whether J147 can prevent tPA-associated brain hemorrhage and extend the treatment time window of tPA in a clinically relevant thromboembolic stroke model in rats. • J147 compound: Stock solution: 60 mg/ml DMSO, in 60 ul/vial, stored at −20° C. • Working solution: 3 mg/ml in 5% DMSO, 70% PEG200 and 25% normal saline, prepared prior to injection. • One vial stock solution was warmed at 37° C. and mixed with 1140 ul sterilized solution (PEG200: saline, 2.8:1). • Recombinant human tPA (Alteplase, 2.2 mg/vial): Reconstituted with 1.1 ml water (2 mg/ml). 10 mg/kg, 10% bonus injection, 90%30 min. via mini pump. A. Infarct Volume and Intracerebral Hemorrhage
Methods: Male SD rats (280-300 g) were subjected to thromboembolic middle cerebral artery occlusion (MCAO) and treated with saline at 4 hours, tPA (tissue-type plasminogen activator; 10 mg/kg, IV) at 4 hours, and combined J147 (10 mg/kg, IV) plus tPA at 4 hours after onset of ischemia. Bederson score was examined prior to the sacrifice at 72 h after stroke. Infarct volumes, brain hemorrhage, and animal mortality were measured.

[5] = system: MMP-9; experiment: Double immunohistochemistry for MMP-9 expression in the brain after thromboembolic stroke; type: in vivo, rats; settings: 24 hours after stroke; tPA at 4 h alone or with J147; n=3 animals per group
Protocol: MMPs, in particular MMP-9, play a critical role in the stroke-associated blood-brain barrier (BBB) disruption, hemorrhagic transformation and neuroinflammation after stroke. Double immunohistochemistry was performed to determine MMP-9 expression in the brain at 24 hours after stroke (FIG. 7A).
(§1) Methods: At the indicated time point, animals were euthanized with CO2 and transcardially perfused with 200 mL ice-cold PBS (0.01 M, pH 7.4) followed by 4% paraformaldehyde (PFA). The brains were removed and post-fixed in 4% PFA solution for overnight at 4° C. Brain samples were then cryoprotected by immersion in 10%, 20%, and 30% gradient sucrose solutions for 48 h at 4° C. respectively. After that, the brains were embedded in optimal cutting temperature (OCT) compound. Coronal sections (15 um) were cut at 0.4 to 1.4 mm posterior to bragma using a cryostat and mounted on positively charged slides. […]
(§2) For quantification, the number of immunoreactive vessels were counted in the ischemic boundary zone. All immunostaining data was analyzed by an investigator blinded to experimental groups using Image Pro plus software (version 5.1, Media Cybernetics, Inc.) and data are presented as the density of immunoreactive vessels relative to the imaged area (mm2) as described. Data were expressed as mean±standard error of the mean (SEM). […]

[6] = system: neutrophil (MPO) infiltration; experiment: Immunostaining of brain neutrophil (MPO) infiltration after thromboembolic stroke; type: in vivo, rats; settings: poststroke; delayed tPA alone or with J147; n=3 animals per group
Protocol: as §1, with “slides. Every twentieth coronal section for a total five sections was used for immunohistochemistry. The primary antibodies: IBa-1 (1:200, Wako), MPO (1:200, Abcam), MMP9 (1:100, R&D), EBA (endothelial barrier antigen, a marker for endothelium in the vessels, 1:500, Covance), fibrinogen (1:200, Dako), thrombocyte (1:200, lifespan) and PAI-1 (1:200, Novus Biologicals) were used.” for “slides.”
as §2

[7] = system: microglia (Iba-1); experiment: Immunostaining of microglia (Iba-1) expansion after thromboembolic stroke; type: in vivo, rats; settings: poststroke; delayed tPA alone or with J147; n=3 animals per group
Protocol: as §1, with “slides. Every twentieth coronal section for a total five sections was used for immunohistochemistry. The primary antibodies: IBa-1 (1:200, Wako), MPO (1:200, Abcam), MMP9 (1:100, R&D), EBA (endothelial barrier antigen, a marker for endothelium in the vessels, 1:500, Covance), fibrinogen (1:200, Dako), thrombocyte (1:200, lifespan) and PAI-1 (1:200, Novus Biologicals) were used.” for “slides.”
as §2

[8] = system: fibrin/fibrinogen; experiment: Double immunofluorescence of intravascular fibrin/fibrinogen deposition in brain microvessels; type: in vivo; settings: stroke rats; delayed tPA alone or with J147
Protocol: as §1, with “slides. Every twentieth coronal section for a total five sections was used for immunohistochemistry. The primary antibodies: IBa-1 (1:200, Wako), MPO (1:200, Abcam), MMP9 (1:100, R&D), EBA (endothelial barrier antigen, a marker for endothelium in the vessels, 1:500, Covance), fibrinogen (1:200, Dako), thrombocyte (1:200, lifespan) and PAI-1 (1:200, Novus Biologicals) were used.” for “slides.”
as §2

[9] = system: platelets; experiment: Double immunofluorescence of platelet (thrombocyte) accumulation in brain microvessels; type: in vivo; settings: stroke rats; delayed tPA alone or with J147
Protocol: as §1, with “slides. Every twentieth coronal section for a total five sections was used for immunohistochemistry. The primary antibodies: IBa-1 (1:200, Wako), MPO (1:200, Abcam), MMP9 (1:100, R&D), EBA (endothelial barrier antigen, a marker for endothelium in the vessels, 1:500, Covance), fibrinogen (1:200, Dako), thrombocyte (1:200, lifespan) and PAI-1 (1:200, Novus Biologicals) were used.” for “slides.”
as §2

[10] = system: platelet P-selectin (CD62P); experiment: Flow cytometry of platelet activation (P-selectin) in whole blood after stroke; type: in vivo; settings: whole blood at 24 hours after ischemia onset; vs saline-treated stroke rats
Protocol: (§3) Elevated platelet activation and platelet-leukocyte interaction contribute importantly to pro-inflammatory and thrombotic events during ischemia-reperfusion injury after stroke. We used flow cytometry to analyze platelet activation and platelet-leukocyte aggregates in whole blood at 24 hours after ischemia onset (FIG. 9A).
(§4) Methods: Blood was drawn into a heparinized capillary tube via the retro-orbital plexus at 24 h after stroke. Whole blood was diluted 1:10 with Flow Cytometry Staining Buffer (eBioscience) containing rat Fc block anti-rat CD32. For evaluation of platelet activation, sample was co-stained with the FITC mouse anti-rat CD42d (1:200, RPM.4) for platelets and PE/Cy7 mouse anti-rat CD62P (1:100, RMP-1) for P-selectin expression. For detection of platelet-leukocyte aggregates (PLA) formation, samples were co-stained with FITC mouse anti-rat CD42d (1:200, RPM.4), PE mouse anti-rat granulocytes (1:100, RP-1), APC mouse anti-rat CD11b (1:50, WT.5) and PE/Cy7 mouse anti-rat CD45 (1:100, OX-1). Isotype-matched control antibodies were used to differentiate non-specific background signal from specific antibody signals. The samples were analyzed on the BD Accuri™ C6 flow cytometer.

[11] = system: platelet-leukocyte aggregates; experiment: Flow cytometry of platelet-leukocyte aggregates in whole blood after stroke; type: in vivo; settings: whole blood at 24 hours after ischemia onset; vs saline-treated stroke rats; n=3 rats per group
Protocol: as §3, §4

[12] = J147 1.0, 10, 30 mg/kg at 2 hours after onset of ischemia, 72 h after stroke, dose-dependent, vs vehicle
[13] = tPA 10 mg/kg IV at 4 hours, alone or with J147 10 mg/kg IV, 72 h after stroke

Row | Molecule | infarct volume (TTC staining) relative to placebo ([1]; 1 mg/kg J147 iv) | infarct volume (TTC staining) relative to placebo ([1]; 10 mg/kg J147 iv) | infarct volume (TTC staining) relative to placebo ([1]; J147 intraperitoneally) | optimal effective dose ([1]; iv, immediately after reperfusion, doses tested 1, 10 and 30 mg/kg) [mg/kg] | infarct volumes [2, 12] | neurological deficit (Bederson score) [2, 12] | effective optimal dose ([2]; treatment of acute ischemic stroke in rats, doses tested 1.0, 10, 30 mg/kg) [mg/kg] | protection from stroke (infarct volume, TTC staining) [3] | brain hemorrhage / hemorrhagic transformation [4, 13] | brain infarction / infarct volume [4, 13] | mortality rate ([4]; treatment at 4 h after onset of ischemia, log-rank test, saline 25%) [%] | Death (number of rats) ([4]; treatment at 4 h after onset of ischemia, tPA n = 22, J147 plus tPA n = 17, saline 3 of 12) | MMP-9 expression on individual cells and brain microvessels [5] | neutrophil (MPO positive cells) infiltration into the brain parenchyma [6] | microglia expansion (number of Iba-1-positive cells) [7] | fibrin/fibrinogen deposited in downstream microvessels [8] | platelets deposited in downstream microvessels [9] | platelet activation (platelet P-selectin expression) [10] | platelet-granulocyte (platelet-neutrophil) aggregates [11]
1 | COc1cccc(/C=N/N(C(=O)C(F)(F)F)c2ccc(C)cc2C)c1 [Compound J147] | insignificant reduction | large reduction | modest reduction | 10 | significantly reduced | significantly reduced | 10 | fails to provide any significant protection |  |  |  |  |  |  |  |  |  |  | 
2 | tPA: Recombinant human tPA (Alteplase), tissue-type plasminogen activator; thrombolytic approved for the treatment of stroke |  |  |  |  |  |  |  |  | worsened | did not decrease | 32 | 7 | further increased | further augmented | no significant effect | markedly increased | markedly increased | no additional effect | no additional effect
